Reference: US10759814B2, “Pharmaceutical compositions containing substituted polycyclic pyridone derivatives and prodrug thereof” (priority 2016, dated 2020)
Where two headings read alike, the source gives them in different places.

Assays:
[1] = type: in vivo; settings: after oral administration of Compound II-6 to rat under non-fasting conditions
Text: FIG. 1 is a result of measuring the plasma concentration of Compound III-2, after oral administration of prodrug Compound II-6, the parent compound of which is Compound III-2, to rat under non-fasting conditions.
FIG. 2 is a result of measuring the plasma concentration of Compound II-6, after oral administration of prodrug Compound II-6, the parent compound of which is Compound III-2, to rat under non-fasting conditions.
Test Example 13: Transition of Plasma Concentration
The plasma concentration of Compound III-2 and Compound II-6 after oral administration of prodrug Compound II-6, the parent compound of which was Compound III-2, to rat under non-fasting conditions was measured.

[2] = system: influenza virus; type: in vivo, human
[3] = type: in vivo, human; settings: Compound II-6 single 40 or 80 mg; Oseltamivir 75 mg twice a day for 5 days
Text: (4) Incidence of side effects
(4) Incidence of Side Effects
The number of side-effect episodes and the number of patients with side effect were counted for each administration group.

[4] = system: influenza virus; experiment: Clinical test (Test Example 15): time to alleviation of influenza symptoms; settings: single oral 10 mg
Text: Test Example 15: Clinical Test
As for the primary endpoint, subjects made evaluations by themselves on a 4-point scale [0: none, 1: mild, 2: moderate, 3: severe] concerning the time to alleviation of influenza symptoms (the time from the beginning of administration of the investigational drug until 7 influenza symptoms (“cough”, “sore throat”, “headache”, “nasal congestion”, “feverishness or chills”, “muscular or joint pain”, and “fatigue”) were alleviated) to evaluate the efficacy of the investigational drug over the placebo.
Patients who satisfied all of the following criteria were selected as subjects.
(a) Male or female patients at 20 years old or older and younger than 65 years old
(b) Patients satisfying all of the following criteria and diagnosed with influenza virus infectious disease
The main efficacy endpoint is the time to alleviation of influenza symptoms (the time to alleviation of influenza symptoms).
It is the time from the beginning of administration until alleviation of influenza symptoms. Alleviation of influenza symptoms refers to when all 7 influenza symptoms (cough, sore throat, headache, nasal congestion, feverishness or chills, muscular or joint pain, fatigue) become “0: none” or “1: mild” in the patient diary that the subject keeps, and this condition continues at least 21.5 hours (24 hours—10%).
Secondary Efficacy Endpoint
The secondary efficacy endpoint is as follows.
(1) Time to Alleviation of Each Influenza Symptom
It is the time from the beginning of administration until alleviation of each influenza symptom. Alleviation of a symptom refers to when the target item becomes “0: none” or “1: mild”, and this condition continues at least 21.5 hours (24 hours—10%).
Analysis of Primary Endpoint
As for the time to alleviation of influenza symptoms, which is the primary endpoint, the primary analysis and the secondary analysis are described. In addition to the ITTI group, the primary analysis was also performed on the PPS group for sensitivity analysis. Other analyses were performed only on the ITTI group.
The hazard ratio, 95% confidence interval, and P value of each administered group relative to the placebo group were calculated by a Cox proportional hazard model using the time to alleviation of influenza symptoms as a response, the administered groups as fixed effects, and the current smoking habit and the total score of 7 influenza symptoms at baseline before administration, which are allocation factors, as covariates. In order to prevent an increase of the probability of type I error due to performing the test multiple times, the P value was adjuste d by the Hommel's method.
The placebo group and each investigational drug administered group were compared by stratified generalized Wilcoxon test using the time to alleviation of influenza symptoms as a response, the administered groups as explanatory variables, and the category (11 points or less, 12 points or more) of the total score of 7 influenza symptoms before administration and the smoking habit, which are allocation factors, as stratification factors.
Also, a Kaplan-Meier survival curve was drawn for each group to calculate the median time to alleviation of influenza symptoms and the 95% confidence interval thereof. The Greenwood's method was used for calculating the confidence interval.
Analysis of Secondary Endpoint
(1) Time Until Each Alleviation of Influenza Symptom
The same analysis as in the primary endpoint was performed, with the time until each alleviation of influenza symptom being regarded as a response. At this time, cases where the symptom before administration was “0: none” or “1: mild” were excluded from the analysis target.

[5] = Day 2 (24 hours later), 12 to <65 years old
[6] = Day 2 (24 hours later), 20 to <65 years old
[7] = Day 3 (48 hours later), 12 to <65 years old
[8] = Day 3 (48 hours later), 20 to <65 years old
[9] = Day 4 (72 hours later), 12 to <65 years old
[10] = Day 4 (72 hours later), 20 to <65 years old
[11] = Day 5 (96 hours later), 12 to <65 years old
[12] = Day 5 (96 hours later), 20 to <65 years old
[13] = Day 6 (120 hours later), 12 to <65 years old
[14] = Day 6 (120 hours later), 20 to <65 years old
[15] = Day 9 (192 hours later), 12 to <65 years old
[16] = Day 9 (192 hours later), 20 to <65 years old
[17] = patients with symptom moderate or severe at baseline

Compound: COC(=O)OCOc1c2n(ccc1=O)N([C@@H]1c3ccccc3SCc3c1ccc(F)c3F)[C@@H]1COCCN1C2=O [II-6]
- plasma concentration of Compound II-6 [1]: a determination limit or less
- Time (median) to termination of viral shedding based on virus titer ([2]; 12 to <65 years old): 24.0 h
- Time to termination of viral shedding, difference between groups vs placebo ([2]; 12 to <65 years old): -72.0 h
- Time to termination of viral shedding, difference between groups vs Oseltamivir ([2]; 20 to <65 years old): -48.0 h
- Amount of change in virus titer from baseline, mean [2, 5]: −4.44 log10 [TCID50/mL]
- Proportion of patients having a positive influenza virus titer [2, 5]: 47.8%
- Amount of change in virus titer from baseline, mean [2, 6]: −4.39 log10 [TCID50/mL]
- Proportion of patients having a positive influenza virus titer [2, 6]: 47.6%
- Amount of change in virus titer from baseline, mean [2, 7]: −4.82 log10 [TCID50/mL]
- Proportion of patients having a positive influenza virus titer [2, 7]: 21.5%
- Amount of change in virus titer from baseline, mean [2, 8]: −4.78 log10 [TCID50/mL]
- Proportion of patients having a positive influenza virus titer [2, 8]: 19.8%
- Amount of change in virus titer from baseline, mean [2, 9]: −4.50 log10 [TCID50/mL]
- Proportion of patients having a positive influenza virus titer [2, 9]: 16.7%
- Amount of change in virus titer from baseline, mean [2, 10]: −4.46 log10 [TCID50/mL]
- Proportion of patients having a positive influenza virus titer [2, 10]: 16.1%
- Amount of change in virus titer from baseline, mean [2, 11]: −4.95 log10 [TCID50/mL]
- Proportion of patients having a positive influenza virus titer [2, 11]: 13.6%
- Amount of change in virus titer from baseline, mean [2, 12]: −4.95 log10 [TCID50/mL]
- Proportion of patients having a positive influenza virus titer [2, 12]: 13.0%
- Amount of change in virus titer from baseline, mean [2, 13]: −4.58 log10 [TCID50/mL]
- Proportion of patients having a positive influenza virus titer [2, 13]: 8.2%
- Amount of change in virus titer from baseline, mean [2, 14]: −4.56 log10 [TCID50/mL]
- Proportion of patients having a positive influenza virus titer [2, 14]: 5.6%
- Amount of change in virus titer from baseline, mean [2, 15]: −5.06 log10 [TCID50/mL]
- Proportion of patients having a positive influenza virus titer [2, 15]: 2.9%
- Amount of change in virus titer from baseline, mean [2, 16]: −5.03 log10 [TCID50/mL]
- Proportion of patients having a positive influenza virus titer [2, 16]: 3.0%
- Incidence of adverse events the causal relationship of which cannot be denied (patients) [3]: 4.4%
- Time until cough symptom is alleviated, difference from placebo [4]: -0.1 h
- Time until cough symptom is alleviated, hazard ratio (Cox model relative to placebo) [4]: 0.941
- Time until fatigue symptom is alleviated, difference from placebo [4]: -10.7 h
- Time until fatigue symptom is alleviated, hazard ratio (Cox model relative to placebo) [4]: 0.783
- Time until feverishness or chills symptom is alleviated, difference from placebo [4]: -4.1 h
- Time until feverishness or chills symptom is alleviated, hazard ratio (Cox model relative to placebo) [4]: 0.635
- Time until headache symptom is alleviated, difference from placebo [4]: -1.5 h
- Time until headache symptom is alleviated, hazard ratio (Cox model relative to placebo) [4]: 0.803
- Time until muscular or joint pain symptom is alleviated, difference from placebo [4]: -10.7 h
- Time until muscular or joint pain symptom is alleviated, hazard ratio (Cox model relative to placebo) [4]: 0.77
- Time until nasal congestion symptom is alleviated, difference from placebo [4]: -17.6 h
- Time until nasal congestion symptom is alleviated, hazard ratio (Cox model relative to placebo) [4]: 0.742
- Time until sore throat symptom is alleviated, difference from placebo [4]: 9.1 h
- Time until sore throat symptom is alleviated, hazard ratio (Cox model relative to placebo) [4]: 1.312
- Time to alleviation of influenza symptoms, difference from placebo ([4]; ITTI): -23.4 h
- Time to alleviation of influenza symptoms, hazard ratio (Cox proportional hazard model relative to placebo) ([4]; ITTI): 0.758
- Time to alleviation of influenza symptoms, median value ([4]; influenza patients 20 to <65 years old, ITTI): 54.2 h
- Time until cough symptom is alleviated, median value [4, 17]: 31.1 h
- Time until fatigue symptom is alleviated, median value [4, 17]: 32 h
- Time until feverishness or chills symptom is alleviated, median value [4, 17]: 24.7 h
